We go through three compounds from patent US20150133492A1, “N-desmethyldauricine, A Novel Autophagic Enhancer for Treatment of Cancers and Neurodegenerative Conditions Thereof” (Macau University of Science and Technology, priority 2013, published 2015).

This experiment has as its system HeLa cells expressing GFP-LC3. Kind of experiment: GFP-LC3 puncta in the presence of specific inhibitors. The experiment is classed as cell-based, human. Particulars: LP-4 10 μM, 4 hours, CC 10 μM, STO-609 25 μM, BM 10 μM. As to the method:
GFP-LC3 puncta formation was quantified as previously described^15. In brief, HeLa cells expressing GFP-LC3 were treated with N-desmethyldauricine (LP-4, 10 μM) in the presence of AMPK inhibitor, compound C (CC, 10 μM), CaMKK-β inhibitor, STO-609 (25 μM) or Calcium chelator, BAPTA/AM (BM, 10 μM) for 4 hours. The cells were then fixed in 4% paraformaldehyde for 20 minutes at room temperature and then rinsed with PBS. Slides were mounted with FluorSave™ mounting media (Calbiochem) and examined by fluorescence microscopy. To quantify for autophagy, the percentage of cells with punctate GFP-LC3 fluorescence was calculated by counting the number of the cells with punctate GFP-LC3 fluorescence in GFP-positive cells. A minimum of 150 cells from 3 randomly selected fields was scored.
Take `CC(=O)OCOC(=O)CN(CC(=O)OCOC(C)=O)c1ccccc1OCCOc1ccccc1N(CC(=O)OCOC(C)=O)CC(=O)OCOC(C)=O` [BAPTA/AM]: the “N-desmethyldauricine-induced GFP-LC3 puncta formation in presence of inhibitor” value was “significant reduction”.

With `O=C(O)c1ccc2c3c1cccc3c(=O)n1c3ccccc3nc21` [STO-609], the “N-desmethyldauricine-induced GFP-LC3 puncta formation in presence of inhibitor” value was “significant reduction”.

Consider `c1cc(-c2cnn3cc(-c4ccc(OCCN5CCCCC5)cc4)cnc23)ccn1` [compound C], for which the “N-desmethyldauricine-induced GFP-LC3 puncta formation in presence of inhibitor” value is “significant reduction”.
